How the values were obtained:
[1] = Activity coefficients (γi) of ITN, Equation (4); assay type: physicochemical
Excerpt: Finally, the x^idl values for ITN were derived from Equation (2). Equation (4) was used to derive the γi values for ITN in numerous {DMSO (1) + H2O (2)} mixes including neat DMSO and H2O [56, 58]:(4) γi=x^idl/xe

[2] = Enthalpy-entropy compensation analysis; assay type: physicochemical; settings: all {DMSO (1) + H2O (2)} mixes, neat DMSO and H2O, Thm = 308 K
Excerpt: An enthalpy–entropy compensation analysis was used, as previously described, to evaluate the solvation behavior of ITN (3) in numerous mixes of {DMSO (1) + H2O (2)}. Weighted curves of ΔsolH° vs. ΔsolG° were generated at Thm = 308 K for this experiment.

[3] = set-up: method as in PMID 36431759; settings: cited from earlier work

γi activity coefficient ([1]; DMSO mass fraction m = 0.0, T = 298.2 K): 1,366,467
γi activity coefficient ([1]; DMSO mass fraction m = 0.0, T = 303.2 K): 972,627.0
γi activity coefficient ([1]; DMSO mass fraction m = 0.0, T = 308.2 K): 611,320.0
γi activity coefficient ([1]; DMSO mass fraction m = 0.0, T = 313.2 K): 441,076.0
γi activity coefficient ([1]; DMSO mass fraction m = 0.0, T = 318.2 K): 326,128.0
γi activity coefficient ([1]; DMSO mass fraction m = 0.1, T = 298.2 K): 384,000.0
γi activity coefficient ([1]; DMSO mass fraction m = 0.1, T = 303.2 K): 278,000.0
γi activity coefficient ([1]; DMSO mass fraction m = 0.1, T = 308.2 K): 187,000.0
γi activity coefficient ([1]; DMSO mass fraction m = 0.1, T = 313.2 K): 136,000.0
γi activity coefficient ([1]; DMSO mass fraction m = 0.1, T = 318.2 K): 106,000.0
γi activity coefficient ([1]; DMSO mass fraction m = 0.2, T = 298.2 K): 111,979.0
γi activity coefficient ([1]; DMSO mass fraction m = 0.2, T = 303.2 K): 83,952.80
γi activity coefficient ([1]; DMSO mass fraction m = 0.2, T = 308.2 K): 58,249.00
γi activity coefficient ([1]; DMSO mass fraction m = 0.2, T = 313.2 K): 43,099.10
γi activity coefficient ([1]; DMSO mass fraction m = 0.2, T = 318.2 K): 34,943.20
γi activity coefficient ([1]; DMSO mass fraction m = 0.3, T = 298.2 K): 31,441.80
γi activity coefficient ([1]; DMSO mass fraction m = 0.3, T = 303.2 K): 24,298.30
γi activity coefficient ([1]; DMSO mass fraction m = 0.3, T = 308.2 K): 17,811.50
γi activity coefficient ([1]; DMSO mass fraction m = 0.3, T = 313.2 K): 13,802.30
γi activity coefficient ([1]; DMSO mass fraction m = 0.3, T = 318.2 K): 11,402.70
γi activity coefficient ([1]; DMSO mass fraction m = 0.4, T = 298.2 K): 9161.740
γi activity coefficient ([1]; DMSO mass fraction m = 0.4, T = 303.2 K): 7310.360
γi activity coefficient ([1]; DMSO mass fraction m = 0.4, T = 308.2 K): 5568.540
γi activity coefficient ([1]; DMSO mass fraction m = 0.4, T = 313.2 K): 4372.740
γi activity coefficient ([1]; DMSO mass fraction m = 0.4, T = 318.2 K): 3713.1570
γi activity coefficient ([1]; DMSO mass fraction m = 0.5, T = 298.2 K): 2602.340
γi activity coefficient ([1]; DMSO mass fraction m = 0.5, T = 303.2 K): 2166.250
γi activity coefficient ([1]; DMSO mass fraction m = 0.5, T = 308.2 K): 1703.980
γi activity coefficient ([1]; DMSO mass fraction m = 0.5, T = 313.2 K): 1429.250
γi activity coefficient ([1]; DMSO mass fraction m = 0.5, T = 318.2 K): 1233.060
γi activity coefficient ([1]; DMSO mass fraction m = 0.6, T = 298.2 K): 751.8650
γi activity coefficient ([1]; DMSO mass fraction m = 0.6, T = 303.2 K): 644.3650
γi activity coefficient ([1]; DMSO mass fraction m = 0.6, T = 308.2 K): 534.7140
γi activity coefficient ([1]; DMSO mass fraction m = 0.6, T = 313.2 K): 438.6560
γi activity coefficient ([1]; DMSO mass fraction m = 0.6, T = 318.2 K): 399.5110
γi activity coefficient ([1]; DMSO mass fraction m = 0.7, T = 298.2 K): 211.8050
γi activity coefficient ([1]; DMSO mass fraction m = 0.7, T = 303.2 K): 189.9250
γi activity coefficient ([1]; DMSO mass fraction m = 0.7, T = 308.2 K): 164.4500
γi activity coefficient ([1]; DMSO mass fraction m = 0.7, T = 313.2 K): 146.1890
γi activity coefficient ([1]; DMSO mass fraction m = 0.7, T = 318.2 K): 133.4190
γi activity coefficient ([1]; DMSO mass fraction m = 0.8, T = 298.2 K): 61.49
γi activity coefficient ([1]; DMSO mass fraction m = 0.8, T = 303.2 K): 56.72
γi activity coefficient ([1]; DMSO mass fraction m = 0.8, T = 308.2 K): 51.11
γi activity coefficient ([1]; DMSO mass fraction m = 0.8, T = 313.2 K): 46.46
γi activity coefficient ([1]; DMSO mass fraction m = 0.8, T = 318.2 K): 42.45
γi activity coefficient ([1]; DMSO mass fraction m = 0.9, T = 298.2 K): 17.6
γi activity coefficient ([1]; DMSO mass fraction m = 0.9, T = 303.2 K): 16.68
γi activity coefficient ([1]; DMSO mass fraction m = 0.9, T = 308.2 K): 16.02
γi activity coefficient ([1]; DMSO mass fraction m = 0.9, T = 313.2 K): 14.84
γi activity coefficient ([1]; DMSO mass fraction m = 0.9, T = 318.2 K): 14.42
γi activity coefficient ([1]; DMSO mass fraction m = 1.0, T = 298.2 K): 5.057
γi activity coefficient ([1]; DMSO mass fraction m = 1.0, T = 303.2 K): 4.988
γi activity coefficient ([1]; DMSO mass fraction m = 1.0, T = 308.2 K): 4.919
γi activity coefficient ([1]; DMSO mass fraction m = 1.0, T = 313.2 K): 4.829
γi activity coefficient ([1]; DMSO mass fraction m = 1.0, T = 318.2 K): 4.791
solvation driven mechanism [2]: enthalpy-driven
SMILES: CC1=C(/C=C/C(C)=C/C=C/C(C)=C\C(=O)O)C(C)(C)CCC1 [ITN, isotretinoin]
total HSP (δt) [3]: 19.30 MPa^1/2
